The results in this text go back to patent US7063948B1, “Uses of antibodies against AChE and peptides thereof” (Yissum Research Development Company of the Hebrew …, priority 1999, dated 2006).

This data set in a line: Evans Blue dye penetration into brain after confined swim stress. The class given is in vivo. To be noted: FIG. 6A. An excerpt:
The above results were confirmed in animal experiments.

Regarding `Cc1cc(-c2ccc(/N=N/c3ccc4c(S(=O)(=O)O)cc(S(=O)(=O)O)c(N)c4c3O)c(C)c2)ccc1/N=N/c1ccc2c(S(=O)(=O)O)cc(S(=O)(=O)O)c(N)c2c1O` [Evans Blue], the “dye penetration into the brain” value is, setting by setting: (nonstressed control mice) “very low levels”; (stressed mice) “a large amount of the dye penetrates the brain”.
